The record followed here is ChEMBL document CHEMBL5465560, “Selectivity Literature for EUbOPEN Chemogenomic Library” (2024).

The target in test [1] is Proto-oncogene tyrosine-protein kinase Src (Homo sapiens, UniProt P12931). As to the kind of experiment: Selectivity interaction (SelectScreen profiling (Invitrogen)) EUB0000607a SRC. Conditions: at 2 µM.
Test [2] addresses T1, Phosphatidylinositol 4,5-bisphosphate 3-kinase catalytic subunit delta isoform (Homo sapiens) (UniProt O00329).
T1 sequence (whole entry): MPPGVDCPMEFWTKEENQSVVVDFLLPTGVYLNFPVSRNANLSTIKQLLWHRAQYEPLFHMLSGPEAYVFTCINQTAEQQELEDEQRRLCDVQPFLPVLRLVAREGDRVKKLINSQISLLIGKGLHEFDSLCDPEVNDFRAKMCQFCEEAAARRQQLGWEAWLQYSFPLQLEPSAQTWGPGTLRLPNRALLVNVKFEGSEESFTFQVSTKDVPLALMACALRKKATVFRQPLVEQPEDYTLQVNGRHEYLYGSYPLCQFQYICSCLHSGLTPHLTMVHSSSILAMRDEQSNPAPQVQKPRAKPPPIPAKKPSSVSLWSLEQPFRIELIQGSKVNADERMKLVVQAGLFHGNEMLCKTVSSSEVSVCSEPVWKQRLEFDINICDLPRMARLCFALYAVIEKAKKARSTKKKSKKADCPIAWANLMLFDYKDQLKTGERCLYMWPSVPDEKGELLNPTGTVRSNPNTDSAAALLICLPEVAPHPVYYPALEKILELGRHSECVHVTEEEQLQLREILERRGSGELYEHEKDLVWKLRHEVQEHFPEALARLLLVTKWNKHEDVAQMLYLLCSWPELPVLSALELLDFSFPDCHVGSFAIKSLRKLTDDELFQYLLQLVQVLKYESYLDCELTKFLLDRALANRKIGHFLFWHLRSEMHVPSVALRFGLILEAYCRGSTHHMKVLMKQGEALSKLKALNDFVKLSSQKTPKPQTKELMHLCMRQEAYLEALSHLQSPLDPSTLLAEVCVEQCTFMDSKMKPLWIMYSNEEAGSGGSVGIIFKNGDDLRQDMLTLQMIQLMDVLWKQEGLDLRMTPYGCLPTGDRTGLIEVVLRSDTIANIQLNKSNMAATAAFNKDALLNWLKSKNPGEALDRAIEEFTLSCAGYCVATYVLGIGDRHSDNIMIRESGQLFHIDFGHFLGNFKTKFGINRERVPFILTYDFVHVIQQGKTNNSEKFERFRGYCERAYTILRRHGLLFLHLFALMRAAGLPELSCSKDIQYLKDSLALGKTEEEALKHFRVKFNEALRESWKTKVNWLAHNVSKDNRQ
As to the kind of experiment: Selectivity interaction (ActivX KiNativ screen (kinase selectivity in THP-1 cell lysates)) EUB0000639a PIK3CD. Format: subcellular. Conditions: lysate, at 1 µM.

Test [3] has as its target Tyrosine-protein kinase FRK (Homo sapiens) (UniProt P42685). As to the kind of experiment: Selectivity interaction (Ambit KINOMEscan and KiNATiv profiling in Jurkat cells) EUB0000090b FRK. Format: cell-based. Conditions: at 1 µM.
In test [4] the target is T2, Serine/threonine-protein kinase MAK (Homo sapiens) (UniProt P20794).
T2 sequence (whole entry): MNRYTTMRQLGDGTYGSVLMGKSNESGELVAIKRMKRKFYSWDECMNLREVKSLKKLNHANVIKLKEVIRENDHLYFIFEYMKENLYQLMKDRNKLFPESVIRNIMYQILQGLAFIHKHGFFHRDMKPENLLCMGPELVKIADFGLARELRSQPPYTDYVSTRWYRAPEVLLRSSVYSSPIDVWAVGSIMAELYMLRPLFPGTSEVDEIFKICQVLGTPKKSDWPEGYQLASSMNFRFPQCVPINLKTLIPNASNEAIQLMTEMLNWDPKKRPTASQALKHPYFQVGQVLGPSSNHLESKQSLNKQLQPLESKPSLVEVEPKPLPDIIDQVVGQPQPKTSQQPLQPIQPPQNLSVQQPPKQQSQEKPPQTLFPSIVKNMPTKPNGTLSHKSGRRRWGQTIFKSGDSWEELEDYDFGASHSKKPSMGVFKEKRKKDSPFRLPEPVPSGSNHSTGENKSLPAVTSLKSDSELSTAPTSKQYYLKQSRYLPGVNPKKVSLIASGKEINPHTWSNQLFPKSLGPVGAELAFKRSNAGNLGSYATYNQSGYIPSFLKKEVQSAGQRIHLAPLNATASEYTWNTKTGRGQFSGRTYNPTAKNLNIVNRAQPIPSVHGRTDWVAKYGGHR
As to the kind of experiment: Selectivity interaction (KinomeScan (DiscoverX)) EUB0000618a MAK. As to conditions: at 10 µM.

Test [5] has as its target DNA (cytosine-5)-methyltransferase 3B (Homo sapiens) (UniProt Q9UBC3). As to the kind of experiment: Selectivity interaction (Methyltransferase screen (radiometric assays, panel of 8 PRMTs, 21 protein lysine methyltransferases, 3 DNA methyltransferases, and one RNA methyltransferase)) EUB0000271b DNMT3B.
Test [6] addresses T3, Tyrosine-protein kinase Mer (Homo sapiens) (UniProt Q12866).
T3 sequence (whole entry): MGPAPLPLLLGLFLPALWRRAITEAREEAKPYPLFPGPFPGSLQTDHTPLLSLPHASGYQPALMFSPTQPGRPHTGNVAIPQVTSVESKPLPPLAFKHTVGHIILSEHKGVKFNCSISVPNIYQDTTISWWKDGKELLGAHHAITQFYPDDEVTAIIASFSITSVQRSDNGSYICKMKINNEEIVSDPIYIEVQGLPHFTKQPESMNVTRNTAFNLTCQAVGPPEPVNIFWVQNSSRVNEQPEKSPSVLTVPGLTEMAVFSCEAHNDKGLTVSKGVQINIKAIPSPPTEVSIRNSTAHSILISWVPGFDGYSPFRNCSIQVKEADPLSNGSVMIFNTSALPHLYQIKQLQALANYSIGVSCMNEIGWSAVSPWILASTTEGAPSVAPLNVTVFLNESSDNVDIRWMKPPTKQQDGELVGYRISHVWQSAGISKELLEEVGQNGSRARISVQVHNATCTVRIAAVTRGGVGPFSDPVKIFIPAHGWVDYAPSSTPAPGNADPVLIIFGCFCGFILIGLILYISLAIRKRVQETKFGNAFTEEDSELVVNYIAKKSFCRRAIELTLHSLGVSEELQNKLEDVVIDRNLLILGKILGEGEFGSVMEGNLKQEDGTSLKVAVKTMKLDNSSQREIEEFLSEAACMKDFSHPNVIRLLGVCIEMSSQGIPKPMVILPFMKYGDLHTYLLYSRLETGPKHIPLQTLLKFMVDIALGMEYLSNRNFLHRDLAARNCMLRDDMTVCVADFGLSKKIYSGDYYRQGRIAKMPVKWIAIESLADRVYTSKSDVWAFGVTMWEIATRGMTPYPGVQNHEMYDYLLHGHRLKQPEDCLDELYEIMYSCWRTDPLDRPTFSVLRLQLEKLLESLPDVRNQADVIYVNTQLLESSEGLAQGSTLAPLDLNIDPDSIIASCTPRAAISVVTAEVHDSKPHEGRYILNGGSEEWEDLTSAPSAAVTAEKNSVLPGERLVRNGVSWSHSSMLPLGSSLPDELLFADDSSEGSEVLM
The experiment in a line: Selectivity interaction (KinomeScan (DiscoverX)) EUB0001079a MERTK. Conditions: at 1 µM.

Chain of Tyrosine-protein kinase FRK (Homo sapiens) (P42685 whole entry): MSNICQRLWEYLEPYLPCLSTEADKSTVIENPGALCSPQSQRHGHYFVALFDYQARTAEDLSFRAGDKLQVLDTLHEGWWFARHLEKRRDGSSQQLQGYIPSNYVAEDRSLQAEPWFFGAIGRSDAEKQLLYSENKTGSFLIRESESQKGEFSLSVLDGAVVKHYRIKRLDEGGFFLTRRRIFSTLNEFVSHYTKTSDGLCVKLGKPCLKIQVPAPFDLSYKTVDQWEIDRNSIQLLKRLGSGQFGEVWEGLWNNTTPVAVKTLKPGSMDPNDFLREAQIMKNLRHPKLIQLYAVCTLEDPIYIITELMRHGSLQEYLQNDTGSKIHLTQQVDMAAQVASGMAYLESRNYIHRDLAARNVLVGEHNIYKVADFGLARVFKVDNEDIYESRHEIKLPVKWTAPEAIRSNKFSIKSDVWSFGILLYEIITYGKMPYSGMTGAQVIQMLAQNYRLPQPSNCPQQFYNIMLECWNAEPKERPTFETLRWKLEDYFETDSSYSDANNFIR
Chain of Proto-oncogene tyrosine-protein kinase Src (P12931 2-536 limits assumed): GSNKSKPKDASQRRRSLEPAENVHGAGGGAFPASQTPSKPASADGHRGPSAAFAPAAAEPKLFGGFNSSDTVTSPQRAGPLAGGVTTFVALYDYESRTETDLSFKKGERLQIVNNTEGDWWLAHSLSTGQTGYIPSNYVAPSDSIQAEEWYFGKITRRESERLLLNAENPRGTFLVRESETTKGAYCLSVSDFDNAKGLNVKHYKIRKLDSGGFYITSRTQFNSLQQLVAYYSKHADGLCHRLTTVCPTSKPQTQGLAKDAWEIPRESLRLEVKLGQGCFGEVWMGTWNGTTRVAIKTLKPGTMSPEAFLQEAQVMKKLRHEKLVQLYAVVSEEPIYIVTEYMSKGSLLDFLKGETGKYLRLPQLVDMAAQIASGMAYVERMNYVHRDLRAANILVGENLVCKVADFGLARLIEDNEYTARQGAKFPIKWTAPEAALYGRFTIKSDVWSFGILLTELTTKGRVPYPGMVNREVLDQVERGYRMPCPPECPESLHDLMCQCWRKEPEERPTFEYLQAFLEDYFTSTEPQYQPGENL

`CNC(=O)Nc1ccc(-c2nc(N3CC4CCC(C3)O4)c3cnn(C4CCC5(CC4)OCCO5)c3n2)cc1`: the % of inhibition in test [1] amounted to 7%. As for `CC[C@@H]1[C@H](F)C(=O)N[C@@H]1COc1nccc2cc(C(N)=O)c(OC)cc12` [ZIMLOVISERTIB], in test [2], the % of inhibition is -2.6%.

Regarding `CN(C)C/C=C/C(=O)Nc1ccc(C(=O)N2CCCC(Nc3ncc(Cl)c(-c4c[nH]c5ccccc45)n3)C2)cc1` (configuration not stated), the % of control in test [3] was determined as 89%.

On to `O[C@H]1CC[C@H](Nc2ncc3nc(Nc4c(F)cc(F)cc4F)n([C@H]4CCOC4)c3n2)CC1`, for which the % of control in test [4] was 97%. For `Cc1cc(C)cc([C@@H]2c3cc(C)ccc3NC(=O)CN2C(=O)c2ccc(Br)s2)c1`, the % of activity in test [5] (at 1 µM) came out at 103%; in test [5] (at 10 µM), 98.3%. `Nc1cnc(N2CCc3cc(S(=O)(=O)Nc4c(F)cc(Cl)cc4F)cc(N4CCCC4=O)c32)nc1` [TP-020n] gave a % of control in test [6] of 100%.
